Where a name gives a salt, the structure may show the parent alone. ± gives the standard error.
What follows are compounds tested on 621-102 (TSC2-deficient) (assay: relative viability vs DMSO; higher = less cytotoxic). Settings: 0.1 µM; serum: 10% FBS; 72 h.
For CCC(C)n1ncn(-c2ccc(N3CCN(c4ccc(OCC5COC(Cn6cncn6)(c6ccc(Cl)cc6Cl)O5)cc4)CC3)cc2)c1=O (configuration not stated) [Itraconazole (Sporanox)], the relative viability was 112 ± 3.4%. With CCCNC(=O)Nc1ccc(Oc2ncnc3cc(OC)c(OC)cc23)cc1Cl [KRN 633] the relative viability was 94.6 ± 3.8%. Compound O=C(c1ccc(/C=C/c2n[nH]c3ccccc23)cc1)N1CCNCC1 [KW 2449] has a relative viability of 94.1 ± 1.3%. O=C(c1ccc(F)cc1)C1CCN(CCn2c(=O)[nH]c3ccccc3c2=O)CC1 [Ketanserin (Vulketan Gel)] was tested, and the relative viability was 103.9 ± 0.64%. Work on O=C(c1ccccc1)c1ccc2n1CCC2C(=O)O (configuration not stated) [Ketorolac] yielded a relative viability of 109 ± 3.2%. CCCCCCCCCCCCCCCC(=O)OC[C@H](O)[C@H]1OC(=O)C(O)=C1O [L-Ascorbyl 6-palmitate] gave a relative viability of 107 ± 1.8%. For Cc1[nH]c2ccccc2c1CCNCc1ccc(/C=C/C(=O)NO)cc1 [LBH-589 (Panobinostat)], the relative viability was 41.28 ± 0.39%. Cc1c(C(=O)Nc2ccc(N3C[C@@H](C)O[C@@H](C)C3)nc2)cccc1-c1ccc(OC(F)(F)F)cc1 [LDE225] gave a relative viability of 120 ± 0.74%. Compound CS(=O)(=O)CCNCc1ccc(-c2ccc3ncnc(Nc4ccc(OCc5cccc(F)c5)c(Cl)c4)c3c2)o1 [Lapatinib Ditosylate] has a relative viability of 101.41 ± 0.072%. Nc1cccc2c1CN(C1CCC(=O)NC1=O)C2=O (configuration not stated) [Lenalidomide] was tested, and the relative viability was 112 ± 2.1%. For N#Cc1ccc(C(c2ccc(C#N)cc2)n2cncn2)cc1 [Letrozole], the relative viability was 104 ± 5%. For CC(=O)NC[C@H]1CN(c2ccc(N3CCOCC3)c(F)c2)C(=O)O1 [Linezolid], the relative viability was 105 ± 2.2%. For CN(C)C(=O)C(CCN1CCC(O)(c2ccc(Cl)cc2)CC1)(c1ccccc1)c1ccccc1 [Loperamide HCl], the relative viability was 109 ± 4.1%. O=c1cc(-c2ccc(O)c(O)c2)oc2cc(O)cc(O)c12 [Luteolin (Luteolol)] showed a relative viability of 100 ± 3%. Cn1cc(/C=C/C(=O)c2cccc(F)c2)cc1/C=C/C(=O)NO [MC1568] gave a relative viability of 104 ± 2.1%. In the case of CC(C)C[C@@H](C=O)NC(=O)[C@H](CC(C)C)NC(=O)[C@H](CC(C)C)NC(=O)OCc1ccccc1 [MG-132], the relative viability is reported as 94.63 ± 0.69%. With Nc1ccccc1NC(=O)c1ccc(CNc2nccc(-c3cccnc3)n2)cc1 [MGCD0103 (Mocetinostat)] the relative viability was 83.5 ± 1.2%. Compound O=C(CN1C(=O)C2(CCCC2)NC[C@H]1c1cc(F)cc(F)c1)Nc1ccc2c(c1)C[C@@]1(C2)C(=O)Nc2ncccc21 [MK 3207 hydrochloride] has a relative viability of 113 ± 3.3%. O=C(O)CC[C@H]1CC[C@@](c2cc(F)ccc2F)(S(=O)(=O)c2ccc(Cl)cc2)CC1 [MK-0752] was tested, and the relative viability was 98.1 ± 2.5%. Compound NC1(c2ccc(-c3nc4ccn5c(=O)[nH]nc5c4cc3-c3ccccc3)cc2)CCC1 [MK-2206] has a relative viability of 98.62 ± 0.66%. Compound S=C(NCc1ccc2c(c1)OCO2)N1CCN(c2ncnc3c2oc2ccccc23)CC1 [MP-470] has a relative viability of 125 ± 1.3%. With Nc1ccccc1NC(=O)c1ccc(CNC(=O)OCc2cccnc2)cc1 [MS-275] the relative viability was 82.7 ± 3.8%. COC(=O)C1=C(C)NC(C)=C(C(=O)OCCN2CCN(C(c3ccccc3)c3ccccc3)CC2)C1c1cccc([N+](=O)[O-])c1 (configuration not stated) [Manidipine HCl (CV-4093)] gave a relative viability of 109 ± 2%. Work on COC(=O)C1=C(C)NC(C)=C(C(=O)OCCN2CCN(C(c3ccccc3)c3ccccc3)CC2)C1c1cccc([N+](=O)[O-])c1 (configuration not stated) [Manidipine] yielded a relative viability of 97.7 ± 1.7%. CNCCCC12CCC(c3ccccc31)c1ccccc12 [Maprotiline HCl] gave a relative viability of 107 ± 3.5%. Compound Cc1nnc(C(C)C)n1[C@H]1C[C@H]2CC[C@@H](C1)N2CC[C@H](NC(=O)C1CCC(F)(F)CC1)c1ccccc1 [Maraviroc (Selzentry)] has a relative viability of 101 ± 2.6%. Work on Cc1ccc(NC(=O)c2ccc(CN3CCN(C)CC3)cc2)cc1Nc1nc(-c2cccnc2)cs1 [Masitinib (AB1010)] yielded a relative viability of 115.4 ± 0.45%. In the case of Cc1[nH]c(=O)c(C#N)cc1-c1ccncc1 [Milrinone (Primacor)], the relative viability is reported as 103.33 ± 0.049%. Compound O=C1c2c(O)ccc(O)c2C(=O)c2c(NCCNCCO)ccc(NCCNCCO)c21 [Mitoxantrone] has a relative viability of 33.21 ± 0.054%. With NC(=O)c1ncn([C@@H]2O[C@H](CO)[C@@H](O)[C@H]2O)c1O [Mizoribine] the relative viability was 100.8 ± 0.97%. N=C(N)NC(=N)N1CCOCC1 [Moroxydine] was tested, and the relative viability was 107 ± 1.3%. In the case of CC1(C)CNc2cc(NC(=O)c3cccnc3NCc3ccncc3)ccc21 [Motesanib DiPhosphate], the relative viability is reported as 110 ± 3%. FC(F)(F)c1ccc(/C=C/c2nc(COc3ccc(CCCCn4ccnn4)cc3)co2)cc1 [Mubritinib (TAK 165)] was tested, and the relative viability was 103 ± 2.6%. Work on CC(C)(C)c1[nH]cnc1/C=c1\[nH]c(=O)/c(=C/c2ccccc2)[nH]c1=O [NPI-2358] yielded a relative viability of 42 ± 0.5%. Compound CC(C)(Cc1ccc2ccccc2c1)NC[C@@H](O)COc1cccc(Cl)c1C#N [NPS-2143] has a relative viability of 97.6 ± 1.3%. CCNC(=O)c1noc(-c2cc(C(C)C)c(O)cc2O)c1-c1ccc(CN2CCOCC2)cc1 [NVP-AUY922] showed a relative viability of 20.32 ± 0.026%. Compound CCNC(=O)c1cc2c(-c3cc(OCCN4CCCC4)c(Cl)cc3Cl)nc(N)nc2s1 [NVP-BEP800] has a relative viability of 102 ± 1.2%. For Fc1cc(-c2cccc3ncc(-c4cnn(C5CCNCC5)c4)nc23)cc(F)c1CN1CCOCC1 [NVP-BSK805 dihydrochloride], the relative viability was 103 ± 1.4%.

Same assay, conditions: 1 µM; serum: 10% FBS; 72 h
Work on CCC(C)n1ncn(-c2ccc(N3CCN(c4ccc(OCC5COC(Cn6cncn6)(c6ccc(Cl)cc6Cl)O5)cc4)CC3)cc2)c1=O (configuration not stated) [Itraconazole (Sporanox)] yielded a relative viability of 60 ± 7.2%. CCCNC(=O)Nc1ccc(Oc2ncnc3cc(OC)c(OC)cc23)cc1Cl [KRN 633] gave a relative viability of 100 ± 2.7%. O=C(c1ccc(/C=C/c2n[nH]c3ccccc23)cc1)N1CCNCC1 [KW 2449] showed a relative viability of 95.02 ± 0.93%. In the case of O=C(c1ccc(F)cc1)C1CCN(CCn2c(=O)[nH]c3ccccc3c2=O)CC1 [Ketanserin (Vulketan Gel)], the relative viability is reported as 92.4 ± 3.8%. O=C(c1ccccc1)c1ccc2n1CCC2C(=O)O (configuration not stated) [Ketorolac] showed a relative viability of 117 ± 4.6%. Compound CCCCCCCCCCCCCCCC(=O)OC[C@H](O)[C@H]1OC(=O)C(O)=C1O [L-Ascorbyl 6-palmitate] has a relative viability of 106.5 ± 0.81%. In the case of Cc1[nH]c2ccccc2c1CCNCc1ccc(/C=C/C(=O)NO)cc1 [LBH-589 (Panobinostat)], the relative viability is reported as 25.4 ± 1%. In the case of Cc1c(C(=O)Nc2ccc(N3C[C@@H](C)O[C@@H](C)C3)nc2)cccc1-c1ccc(OC(F)(F)F)cc1 [LDE225], the relative viability is reported as 115 ± 5.7%. CS(=O)(=O)CCNCc1ccc(-c2ccc3ncnc(Nc4ccc(OCc5cccc(F)c5)c(Cl)c4)c3c2)o1 [Lapatinib Ditosylate] showed a relative viability of 103 ± 2.5%. Nc1cccc2c1CN(C1CCC(=O)NC1=O)C2=O (configuration not stated) [Lenalidomide] was tested, and the relative viability was 109 ± 4.8%. With N#Cc1ccc(C(c2ccc(C#N)cc2)n2cncn2)cc1 [Letrozole] the relative viability was 113.3 ± 0.22%. With CC(=O)NC[C@H]1CN(c2ccc(N3CCOCC3)c(F)c2)C(=O)O1 [Linezolid] the relative viability was 102 ± 4.4%. For CN(C)C(=O)C(CCN1CCC(O)(c2ccc(Cl)cc2)CC1)(c1ccccc1)c1ccccc1 [Loperamide HCl], the relative viability was 106 ± 4.2%. O=c1cc(-c2ccc(O)c(O)c2)oc2cc(O)cc(O)c12 [Luteolin (Luteolol)] showed a relative viability of 105.3 ± 0.74%. Compound Cn1cc(/C=C/C(=O)c2cccc(F)c2)cc1/C=C/C(=O)NO [MC1568] has a relative viability of 98.5 ± 4.7%. CC(C)C[C@@H](C=O)NC(=O)[C@H](CC(C)C)NC(=O)[C@H](CC(C)C)NC(=O)OCc1ccccc1 [MG-132] showed a relative viability of 4.41 ± 0.73%. Nc1ccccc1NC(=O)c1ccc(CNc2nccc(-c3cccnc3)n2)cc1 [MGCD0103 (Mocetinostat)] gave a relative viability of 82.8 ± 1.6%. Work on O=C(CN1C(=O)C2(CCCC2)NC[C@H]1c1cc(F)cc(F)c1)Nc1ccc2c(c1)C[C@@]1(C2)C(=O)Nc2ncccc21 [MK 3207 hydrochloride] yielded a relative viability of 116.5 ± 0.26%. In the case of O=C(O)CC[C@H]1CC[C@@](c2cc(F)ccc2F)(S(=O)(=O)c2ccc(Cl)cc2)CC1 [MK-0752], the relative viability is reported as 101.6 ± 0.5%.
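Note: immortalized renal angiomyolipoma cells stably carrying empty vector or TSC2, dosed in 384-well plates in DMEM, viability normalized to vehicle-treated wells within each plate.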
